# From paper PMC3961628 (American Journal of Cardiovascular Drugs, 2013)
# Like-named read-outs stand apart in the source and are kept apart here.
# What was measured:
# [1] = single oral 20-mg radiolabeled dose; bile collected 3–8 h after dose; cited from earlier work
# [2] = BDC dogs, cited from earlier work
# [3] = test system: major uptake transporters; conditions: cited from earlier work
# Safety assessments = format: in vivo, healthy human subjects
# [4] = cited from earlier work
# [5] = Stability of apixaban in human plasma; format: in vitro ADME; conditions: at −20 °C
# [6] = cited from earlier work; remark: listed apart in the source
# [7] = BDC rats, intravenous [14C]apixaban; cited from earlier work
# [8] = format: in vivo, healthy human subjects; conditions: for AUC(0-t) / AUC(0-inf) / Cmax: geometric mean (% CV); for AUC(0-inf): AUCINF; for Cmax: C max; for half-life: T ½
# [9] = apixaban 2.5 mg solution released in the ascending colon
# [10] = apixaban 2.5 mg solution released in the distal small bowel
# [11] = human, plasma, oral, 20 mg, Treatment A: apixaban 20 mg alone, n = 18
# [12] = human, plasma, oral, Treatment B: apixaban 20 mg + activated charcoal 2 h after apixaban, n = 14
# [13] = human, plasma, oral, Treatment C: apixaban 20 mg + activated charcoal 6 h after apixaban, n = 17
smiles,measurement,setting,value
"COc1ccc(-n2nc(C(N)=O)c3c2C(=O)N(c2ccc(N4CCCCC4=O)cc2)CC3)cc1 [apixaban, 1-(4-methoxyphenyl)-7-oxo-6-(4-(2-oxopiperidin-1-yl)phenyl)-4,5,6,7-tetrahydro-1H-pyrazolo[3,4-c]pyridine-3-carboxamide]","Biliary excretion, share of total recovered radioactivity",[1],less than 3%
same,Dose found in feces,[2]; intravenous [14C]apixaban,40–50 % of the dose
same,Effect of activated charcoal on fecal recovery and apparent systemic clearance,[2],increased fecal recovery and apparent systemic clearance
same,Substrate status for major uptake transporters,[3],not a substrate
same,Proportion of subjects reporting adverse events,Safety assessments; apixaban 20 mg alone,16.7%
same,Tolerability,"Safety assessments; healthy subjects, single 20-mg doses",well tolerated
same,AUC(0–T) lower than with oral administration,[4]; [9],84%
same,C max lower than with oral administration,[4]; [9],90%
same,AUC(0–T) lower than with oral administration,[4]; [10],approximately 60%
same,C max lower than with oral administration,[4]; [10],approximately 60%
same,Stability in human plasma,[5],at least 864 days
same,Oral bioavailability,[6]; background statement,approximately 50%
same,Effect of food and changes in gastric pH on apixaban exposure,[6],no clinically relevant effect
same,Terminal half-life (T ½),[6],approximately 12 h
same,Time to peak plasma concentration (C max),"[6]; oral administration, immediate-release tablet, background statement",approximately 3 h
same,Dose found in feces,[7],20–30 % of the dose
same,T ½,"[8]; Treatment A: apixaban 20 mg alone, n = 18, mean (SD)",13.4 (5.1) h
same,T max,"[8]; Treatment C: apixaban 20 mg + activated charcoal 6 h after apixaban, n = 17, median (range)",2.5 (1.5–4.0) h
same,Decrease in apixaban exposure (AUCINF) vs apixaban alone,[8]; activated charcoal administered at 2 h post-dose,50%
same,Decrease in apixaban exposure (AUCINF) vs apixaban alone,[8]; activated charcoal administered at 6 h post-dose,28%
same,Effect of activated charcoal on C max or T max of apixaban,[8]; charcoal at 2 or 6 h post-dose,no effect
same,Tmax,"[8]; human, plasma, oral, 20 mg",2.5 h
same,AUC(0-t),[8]; [11],4.08 µg·h/mL
same,AUC(0-inf),[8]; [11],4.19 µg·h/mL
same,Cmax,[8]; [11],0.38 µg/mL
same,AUC(0-t),"[8]; human, plasma, oral, Treatment B: apixaban 20 mg + activated charcoal 50 g 2 h after apixaban, n = 14",2.01 µg·h/mL
same,AUC(0-t),"[8]; human, plasma, oral, Treatment C: apixaban 20 mg + activated charcoal 50 g 6 h after apixaban, n = 17",2.95 µg·h/mL
same,AUC(0-inf),[8]; [12],2.03 µg·h/mL
same,AUC(0-inf),[8]; [13],2.98 µg·h/mL
same,Cmax,[8]; [12],0.366 µg/mL
same,Cmax,[8]; [13],0.383 µg/mL
same,half-life,"[8]; human, plasma, oral, Treatment B: apixaban 20 mg + activated charcoal 2 h after apixaban, n = 14, mean (SD)",5.3 h
same,half-life,"[8]; human, plasma, oral, Treatment C: apixaban 20 mg + activated charcoal 6 h after apixaban, n = 17, mean (SD)",4.9 h
same,Time for which mean plasma concentrations were quantifiable,"[8]; single oral 20-mg dose without activated charcoal, LLOQ 1 ng/mL",up to 72 h
